In patent publication US20250243218A1, “NOVEL CARBAMATE COMPOUND AND USE THEREOF” (CHENGDU SHIBEIKANG BIOMEDICAL TECHNOLOGY CO., LTD., priority 2022, published 2025):
Structures can show the parent of a compound that is named as a salt.

Key:
[1] = target: T1, hERG potassium channel (Homo sapiens, UniProt Q12809); assay: cell-based; settings: IC50 (μM), inhibition of cardiac hERG potassium channel, manual patch-clamp, stably overexpressed hERG channel
T1 construct: expressed in transfected cells
T1 sequence (Q12809 whole entry): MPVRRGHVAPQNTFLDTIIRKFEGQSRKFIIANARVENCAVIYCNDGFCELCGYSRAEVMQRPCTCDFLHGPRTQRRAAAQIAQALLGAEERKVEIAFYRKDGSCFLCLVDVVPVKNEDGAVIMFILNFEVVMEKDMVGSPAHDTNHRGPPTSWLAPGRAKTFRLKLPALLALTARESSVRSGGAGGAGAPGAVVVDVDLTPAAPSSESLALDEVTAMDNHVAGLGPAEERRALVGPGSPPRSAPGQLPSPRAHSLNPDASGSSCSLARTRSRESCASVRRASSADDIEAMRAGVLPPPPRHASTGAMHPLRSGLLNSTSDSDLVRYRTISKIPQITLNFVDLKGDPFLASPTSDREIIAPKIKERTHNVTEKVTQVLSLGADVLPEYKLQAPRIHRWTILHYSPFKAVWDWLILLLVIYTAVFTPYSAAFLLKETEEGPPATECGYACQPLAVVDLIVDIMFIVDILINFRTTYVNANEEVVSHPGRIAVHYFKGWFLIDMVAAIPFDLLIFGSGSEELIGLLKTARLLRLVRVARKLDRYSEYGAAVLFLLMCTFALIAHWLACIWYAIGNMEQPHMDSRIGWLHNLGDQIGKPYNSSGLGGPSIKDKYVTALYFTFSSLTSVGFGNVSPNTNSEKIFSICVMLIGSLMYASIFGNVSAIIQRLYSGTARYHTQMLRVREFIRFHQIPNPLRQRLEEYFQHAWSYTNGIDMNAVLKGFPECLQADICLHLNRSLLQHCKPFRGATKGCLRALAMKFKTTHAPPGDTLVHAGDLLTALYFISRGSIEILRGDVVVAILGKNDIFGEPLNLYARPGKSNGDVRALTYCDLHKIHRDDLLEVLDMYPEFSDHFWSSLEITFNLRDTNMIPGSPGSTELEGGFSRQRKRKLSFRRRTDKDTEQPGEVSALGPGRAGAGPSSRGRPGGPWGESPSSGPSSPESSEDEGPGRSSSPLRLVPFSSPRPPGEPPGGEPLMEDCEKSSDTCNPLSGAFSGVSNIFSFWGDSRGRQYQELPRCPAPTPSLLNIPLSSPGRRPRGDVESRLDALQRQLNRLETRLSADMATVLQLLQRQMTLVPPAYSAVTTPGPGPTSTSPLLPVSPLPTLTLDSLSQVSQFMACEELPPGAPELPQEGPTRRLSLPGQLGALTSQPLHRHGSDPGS
From the text: Test Example 2: Effect of Compounds on Current in Stably Overexpressed hERG Channel

[2] = system: ADP-induced platelet aggregation in rats; assay: Antiplatelet aggregation effect: ADP-induced platelet aggregation in PRP of rats after iv administration; format: in vivo; settings: single iv at the same molar dose, blood 3 h after administration, ADP final 20 μM
From the text: 1. Test objective: Evaluation and comparison of the antiplatelet aggregation treatment effect of each compound after administration at the same molar amount
70 rats were randomly and evenly grouped into 7 groups, i.e., solvent control group, comparative example 1 (2-Oxo-clopidogrel) group, comparative example 2 (Vicagrel) group, compound 1 group, compound 2 group, compound 7 group and compound 8 group.
Rats were anesthetized by intraperitoneal injection of 1.5% sodium pentobarbital.
The anesthetized animals were transferred to an operating platform.
The rats were injected with anesthetic, and fixed on the operating platform in a supine position after the whole body of the rat became soft. After routine disinfection, the abdomen of the rat was incised along the abdominal midline using surgical scissors to open the abdominal cavity. The adipose tissue around the blood vessels was gently separated with a small forceps, and the excess adipose tissue covering the blood vessels was then wiped and removed with the cotton ball to make the blood vessels clearly visible (the abdominal aorta is located anterior to the vertebral column, and the abdominal vein appears thicker and darker in color than the abdominal aorta). The blood vessel was first fixed to prevent it from moving as much as possible. The left thumb and index finger fixed the adipose tissue and other organs on both sides of the blood vessel, while the ring finger pressed on the blood vessel at the upper end of the needle insertion point to lower the blood pressure, which can prevent blood spurting. The puncture needle was held with the right hand, with the bevel of the needle tip facing downward. The needle was inserted at an angle of about 30 degrees and advanced towards the heart to a suitable depth of about 5 mm. Once the blood had started to enter the needle via its tip, the other end of the blood collection needle was inserted into the vacuum tube. After the insertion of needle, the needle tip could be clamped with a hemostatic clip to prevent it from puncturing the blood vessel if the rat struggled due to insufficient anesthesia.
Three hours after the administration, the rats were anesthetized with sodium pentobarbital. Then blood was collected from the abdominal aorta, added with 3.8% sodium citrate (1:9) as an anticoagulant, mixed evenly and centrifuged at 200 g for 10 min. The supernatant was harvested to obtain the platelet-rich plasma (PRP), and the residual plasma was then centrifuged at 1600 g for 15 min to obtain the resulting supernatant as platelet-poor plasma (PPP).
Platelet aggregation rate was measured using a platelet aggregometer (model: Agg RAM, Helena, USA). The PPPs corresponding to the PRPs to be tested in each channel were first used to correct the light transmission, and the PPPs were removed after the correction. A cuvette added with 225 μl of PRP to be tested was then placed in each channel, and added with a stirrer, then ADP (with a final concentration of 20 μM). The platelet aggregometer immediately began to measure the platelet aggregation rate.

[3] = Solubility study; format: physicochemical; settings: 25° C. to 30° C.
Description: Samples of the example compound 2 and comparative example 2 (Vicagrel) were accurately weighed. Under the condition of 25° C. to 30° C., 1 ml of physiological saline and 1 ml of a buffer (pH 1.2) were taken, and added with 10 mg of each compound, respectively. The compound 2 of the present disclosure had excellent solubility, which can satisfy the demand for the formulation into an injection with an effective concentration in clinical, while the solubility of the comparative example 2 was extremely low and it cannot satisfy the demand for injection, and the addition of additional solubilizer may pose potential safety risks.

[4] = Influencing factor test (high temperature, high humidity, light); format: physicochemical; settings: high temperature (60° C.), two days
Description: Test Methods: The samples of the compound 2 and comparative example 2 (Vicagrel) were weighed and placed in weighing bottles, respectively, and the weighing bottles were placed under the conditions of high temperature (60° C.), high humidity (RH 80%), and light (5000 Lux), respectively.

[5] = Pharmacokinetic study in SD rats, 2-Oxo-clopidogrel in plasma by LC/MS/MS; format: in vivo; settings: SD, rat, in vivo
From the text: After being administered via single gavage at the same molar amount, the pharmacokinetic characteristics of each compound were investigated, and the main pharmacokinetic parameters were compared.
Each test compound was accurately weighed separately into a clean drug container, dissolved with appropriate amount of Solutol, shaken by vortex, added with purified water, ultrasonicated, and shaken by vortex until the compound was completely dissolved. All the formulations were freshly prepared on the day of administration.
Thirty healthy adult SD rats were administered via gavage.
Grouping and Fasting: SD rats were randomly grouped, with 6 rats per group, and administered with the corresponding compounds via gavage according to Table 3.
Sample Collection and Processing: 0.2 ml of blood was collected at different time points of before (0 h) and 5 min, 15 min, 30 min, 1 h, 2 h, 4 h, 8 h, and 24 h after the administration. After the anticoagulation with EDTA-K2 was completed, the blood was centrifuged at 4° C. for 5 min, and then the plasma was separated and stored at −80° C. for later measurement.
Measurement: The blood drug concentration of 2-Oxo-clopidogrel in all PK plasma samples was measured by LC/MS/MS method, and the pharmacokinetic parameters of individual compounds were calculated by using software WinNonlin 7.2.

Compound | IC50 [1] [µM] | Platelet aggregation rate (%) ([2]; solvent control 76.06 ± 3.29) | further results
COC(=O)[C@H](c1ccccc1Cl)N1CCc2sc(OC(=O)N3CCN(C4CCCCC4)CC3)cc2C1 [Compound 6, (S)-5-(1-(2-chlorophenyl)-2-methoxy-2-oxyethyl)-4,5,6,7-tetrahydrothieno[3,2-c]pyridin-2-yl 4-cyclohexylpiperazine-1-carboxylate] | 14.9 | – | –
COC(=O)[C@H](c1ccccc1Cl)N1CCc2sc(OC(C)=O)cc2C1 [Comparative Example 2, Vicagrel, reference compound] | – | 39.32 ± 12.38 ^ % | Platelet aggregation rate (%) ([2]; solvent control 76.06 ± 3.29, listed as comparative example 2): 39.32±12.38%; Solubility, pH 1.2 buffer ([3]; 10 mg compound added to 1 ml buffer (pH 1.2)): < 0.5 mg/mL; Solubility, Physiological saline(1 ml) ([3]; 10 mg compound added to 1 ml physiological saline): insoluble; change in appearance and characteristics [4]: from a white solid to a yellowish-brown oil
COC(=O)[C@H](c1ccccc1Cl)N1CCc2sc(OC(=O)N3CCN(C4CCCC4)CC3)cc2C1 [Compound 5, (S)-5-(1-(2-chlorophenyl)-2-methoxy-2-oxyethyl)-4,5,6,7-tetrahydrothieno[3,2-c]pyridin-2-yl 4-cyclopentylpiperazine-1-carboxylate] | 15.8 | – | –
COC(=O)[C@H](c1ccccc1Cl)N1CCc2sc(OC(=O)N3CCC(N4CCCCC4)CC3)cc2C1 [Compound 8, (S)-5-(1-(2-chlorophenyl)-2-methoxy-2-oxyethyl)-4,5,6,7-t etrahydrothieno[3,2-c]pyridin-2-yl [1,4′-bipiperidine]-1′-carboxylate hydrochloride] | 27.3 | – | Platelet aggregation rate (%) ([2]; solvent control 76.06 ± 3.29, hydrochloride): 27.13 ± 6.50 %
COC(=O)[C@H](c1ccccc1Cl)N1CCc2sc(OC(=O)N3CCC(C4CCN(C)C4)CC3)cc2C1 (stereo partly drawn) [Compound 9, 5-((S)-1-(2-chlorophenyl)-2-methoxy-2-oxyethyl)-4,5,6,7-tetrahydrothieno[3,2-c]pyridin-2-yl-4-(1-methylpyrrolidine-3-yl) piperidine-1-carboxylate] | 27.2 | – | –
COC(=O)[C@H](c1ccccc1Cl)N1CCC2SC(=O)C=C2C1 (stereo partly shown) [Comparative Example 1, 2-Oxo-clopidogrel, reference compound] | – | 31.32 ± 6.07 ^ % | Platelet aggregation rate (%) ([2]; solvent control 76.06 ± 3.29, listed as comparative example 1): 31.32±6.07%; AUC0-last [5]: 60.15 ± 14.22 ng·h/mL; Cmax [5]: 38.48 ± 13.51 ng/mL; T1/2 [5]: 70.8 ± 12.6 min; Tmax [5]: 37.8 ± 9 min
COC(=O)[C@H](c1ccccc1Cl)N1CCc2sc(OC(=O)N3CCN(C4CC4)CC3)cc2C1 [Compound 4, (S)-5-(1-(2-chlorophenyl)-2-methoxy-2-oxyethyl)-4,5,6,7-tetrahydrothieno[3,2-c]pyridin-2-yl 4-cyclopropylpiperazine-1-carboxylate] | 16.4 | – | –
COC(=O)[C@H](c1ccccc1Cl)N1CCc2sc(OC(=O)N3CCN(C)CC3)cc2C1 [Compound 1, (S)-5-(1-(2-chlorophenyl)-2-methoxy-2-oxyethyl)-4,5,6,7-tetrahydrothieno[3,2-c]pyridin-2-yl 4-methylpiperazine-1-carboxylate] | 20.5 | 24.08 ± 6.00 % | Platelet aggregation rate (%) ([2]; solvent control 76.06 ± 3.29, listed as compound 1): 24.08±6.00%
COC(=O)[C@H](c1ccccc1Cl)N1CCc2sc(OC(=O)N3CCC(N4CCN(C)CC4)CC3)cc2C1 [Compound 10, (S)-5-(1-(2-chlorophenyl)-2-methoxy-2-oxyethyl)-4,5,6,7-tetrahydrothieno[3,2-c]pyridin-2-yl-4-(4-methylpiperazine-1-yl) piperidine-1-carboxylate] | 25.9 | – | –
COC(=O)[C@H](c1ccccc1Cl)N1CCc2sc(OC(=O)N3CCC(N4CCCCC4)CC3)cc2C1 [Compound 7, (S)-5-(1-(2-chlorophenyl)-2-methoxy-2-oxyethyl)-4,5,6,7-tetrahydrothieno[3,2-c]pyridin-2-yl [1,4′-bipiperidine]-1′-carboxylate] | 25.4 | 27.59 ± 6.99 % | Platelet aggregation rate (%) ([2]; solvent control 76.06 ± 3.29, listed as compound 7): 27.59±6.99%
CCCN1CCN(C(=O)Oc2cc3c(s2)CCN([C@H](C(=O)OC)c2ccccc2Cl)C3)CC1 [Compound 3, (S)-5-(1-(2-chlorophenyl)-2-methoxy-2-oxyethyl)-4,5,6,7-t etrahydrothieno[3,2-c]pyridin-2-yl-4-propylpiperazine-1-carboxylate] | 15.2 | – | –
